Experiments:
Experiment in all cases: normalised viability (% of control), CellTiter-Blue; higher = more viable cells (about 100 = DMSO control)
Settings in all cases: incubation time: 72 h
DU-4475 [1] = system: DU-4475
Description: (§1)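 DSRT, CellTiter-Blue viability, 72 h incubation. Signal is normalised to DMSO and benzethonium chloride controls. Value is the normalised response at dose 8.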

HDQ-P1 [2] = system: HDQ-P1
Description: as §1

CAL-148 [3] = system: CAL-148
Description: as §1

CAL-85-1 [4] = system: CAL-85-1
Description: as §1

MDA-MB-453 [5] = system: MDA-MB-453
Description: as §1

CAL-51 [6] = system: CAL-51
Description: as §1

DU-4475 [7] = system: DU-4475; remark: listed apart in the source
Description: (§2)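 DSRT, CellTiter-Blue viability, 72 h incubation. Signal is normalised to DMSO and benzethonium chloride controls. Value is the normalised response at dose 6.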

HDQ-P1 [8] = system: HDQ-P1; remark: listed apart in the source
Description: as §2

CAL-148 [9] = system: CAL-148; remark: listed apart in the source
Description: as §2

CAL-85-1 [10] = system: CAL-85-1; remark: listed apart in the source
Description: as §2

MDA-MB-453 [11] = system: MDA-MB-453; remark: listed apart in the source
Description: as §2

CAL-51 [12] = system: CAL-51; remark: listed apart in the source
Description: as §2

DU-4475 [13] = system: DU-4475; remark: listed apart in the source
Description: (§3)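 DSRT, CellTiter-Blue viability, 72 h incubation. Signal is normalised to DMSO and benzethonium chloride controls. Value is the normalised response at dose 7.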

HDQ-P1 [14] = system: HDQ-P1; remark: listed apart in the source
Description: as §3

CAL-148 [15] = system: CAL-148; remark: listed apart in the source
Description: as §3

CAL-85-1 [16] = system: CAL-85-1; remark: listed apart in the source
Description: as §3

MDA-MB-453 [17] = system: MDA-MB-453; remark: listed apart in the source
Description: as §3

CAL-51 [18] = system: CAL-51; remark: listed apart in the source
Description: as §3

SMILES | normalised viability (DU-4475 [1]) [%] | normalised viability (HDQ-P1 [2]) [%] | normalised viability (CAL-148 [3]) [%] | normalised viability (CAL-85-1 [4]) [%] | normalised viability (MDA-MB-453 [5]) [%] | normalised viability (CAL-51 [6]) [%] | normalised viability (DU-4475 [7]) [%] | normalised viability (HDQ-P1 [8]) [%] | normalised viability (CAL-148 [9]) [%] | normalised viability (CAL-85-1 [10]) [%] | normalised viability (MDA-MB-453 [11]) [%] | normalised viability (CAL-51 [12]) [%] | further results
C=CC[C@@H]1/C=C(\C)C[C@H](C)C[C@H](OC)[C@H]2O[C@@](O)(C(=O)C(=O)N3CCCC[C@H]3C(=O)O[C@H](/C(C)=C/[C@@H]3CC[C@@H](O)[C@H](OC)C3)[C@H](C)[C@@H](O)CC1=O)[C@H](C)C[C@@H]2OC [Tacrolimus] (3000 nM) | 121 | 116 | 99.2 | 100 | 102 | 99.2 | – | – | – | – | – | – | –
CC[C@]1(O)C[C@@H]2CN(CCc3c([nH]c4ccccc34)[C@@](C(=O)OC)(c3cc4c(cc3OC)N(C)[C@H]3[C@@](O)(C(=O)OC)[C@H](OC(C)=O)[C@]5(CC)C=CCN6CC[C@]43[C@@H]65)C2)C1 [Vinblastine] (300 nM) | 20.9 | 33.5 | 17.7 | 30.8 | 24.4 | 16.9 | – | – | – | – | – | – | –
Cc1c2oc3c(C)ccc(C(=O)N[C@@H]4C(=O)N[C@H](C(C)C)C(=O)N5CCC[C@H]5C(=O)N(C)CC(=O)N(C)[C@@H](C(C)C)C(=O)O[C@@H]4C)c3nc-2c(C(=O)N[C@@H]2C(=O)N[C@H](C(C)C)C(=O)N3CCC[C@H]3C(=O)N(C)CC(=O)N(C)[C@@H](C(C)C)C(=O)O[C@@H]2C)c(N)c1=O [Dactinomycin] (300 nM) | 1.26 | 9.3 | 11.4 | 2.52 | 6.05 | 5.05 | – | – | – | – | – | – | –
S=c1[nH]cnc2nc[nH]c12 [Mercaptopurine] (3000 nM) | 114 | 88.9 | 90.8 | 83.3 | 115 | 90.1 | – | – | – | – | – | – | –
Clc1ccc(C(c2ccccc2Cl)C(Cl)Cl)cc1 (configuration not stated) [Mitotane] (3000 nM) | 96.2 | 91.7 | 103 | 94.6 | 113 | 111 | – | – | – | – | – | – | –
CN1CCC(COc2cnc(-c3cccc(Cn4nc(-c5cccc(C#N)c5)ccc4=O)c3)nc2)CC1 (3000 nM) | 108 | 85.4 | 79.8 | 87.3 | 63.8 | 84.4 | – | – | – | – | – | – | –
CN(C)C/C=C/C(=O)Nc1cc2c(Nc3ccc(F)c(Cl)c3)ncnc2cc1O[C@H]1CCOC1 [Afatinib] (3000 nM) | 92.7 | 19.4 | 58.2 | 39.6 | 30 | 86.2 | – | – | – | – | – | – | –
CN1CC[C@H](c2c(O)cc(O)c3c(=O)cc(-c4ccccc4Cl)oc23)[C@H](O)C1 [Alvocidib] (3000 nM) | 1.28 | 13.7 | 14.4 | 3.02 | 7.79 | 4.88 | – | – | – | – | – | – | –
Nc1nc(Cl)nc2c1ncn2[C@H]1C[C@H](O)[C@@H](CO)O1 [Cladribine] (300 nM) | 102 | 96.3 | 103 | 92.9 | 96.9 | 104 | – | – | – | – | – | – | –
Nc1nc(Cl)nc2c1ncn2[C@H]1C[C@H](O)[C@@H](CO)O1 [Cladribine] (30 nM) | – | – | – | – | – | – | 101 | 90.2 | 108 | 102 | 107 | 109 | –
C=CCNC1=C2C[C@@H](C)C[C@H](OC)[C@H](O)[C@@H](C)/C=C(\C)[C@H](OC(N)=O)[C@@H](OC)/C=C\C=C(/C)C(=O)NC(=CC1=O)C2=O [Tanespimycin] (3000 nM) | 0.57 | 24.7 | 17.2 | 23 | 8.29 | 11.3 | – | – | – | – | – | – | –
CO[C@H]1C[C@@H]2CC[C@@H](C)[C@@](O)(O2)C(=O)C(=O)N2CCCC[C@H]2C(=O)O[C@H]([C@H](C)C[C@@H]2CC[C@@H](OC(=O)C(C)(CO)CO)[C@H](OC)C2)CC(=O)[C@H](C)/C=C(\C)[C@@H](O)[C@@H](OC)C(=O)[C@H](C)C[C@H](C)/C=C/C=C/C=C/1C [Temsirolimus] (300 nM) | 50.3 | 69.1 | 33.7 | 57.4 | 26.2 | 37.2 | – | – | – | – | – | – | –
C[C@]1(c2nc3c(C(N)=O)cccc3[nH]2)CCCN1 [Veliparib] (3000 nM) | 86.2 | 82.9 | 91.8 | 92.2 | 109 | 108 | – | – | – | – | – | – | –
COc1cc(Nc2ncc3c(n2)-c2ccc(Cl)cc2C(c2c(F)cccc2OC)=NC3)ccc1C(=O)O [MLN8237] (300 nM) | – | – | – | – | – | – | 9.79 | 44.1 | 49.2 | 44 | 64.7 | 35.9 | –
Nc1ccn([C@@H]2O[C@H](CO)[C@@H](O)[C@@H]2O)c(=O)n1 [Cytarabine] (300 nM) | – | – | – | – | – | – | 72.6 | 75.1 | 42.2 | 89.2 | 87.5 | 51.2 | –
CN1CC[C@H](c2c(O)cc(O)c3c(=O)cc(-c4ccccc4Cl)oc23)[C@H](O)C1 [Alvocidib] (300 nM) | – | – | – | – | – | – | 1.07 | 24.5 | 17.5 | 17.3 | 32.7 | 31.6 | –

SMILES | normalised viability (DU-4475 [1]) [%] | normalised viability (HDQ-P1 [2]) [%] | normalised viability (CAL-148 [3]) [%] | normalised viability (CAL-85-1 [4]) [%] | normalised viability (MDA-MB-453 [5]) [%] | normalised viability (CAL-51 [6]) [%] | normalised viability (DU-4475 [7]) [%] | normalised viability (HDQ-P1 [8]) [%] | normalised viability (CAL-148 [9]) [%] | normalised viability (CAL-85-1 [10]) [%] | normalised viability (MDA-MB-453 [11]) [%] | normalised viability (CAL-51 [12]) [%] | further results
S=c1[nH]cnc2nc[nH]c12 [Mercaptopurine] (300 nM) | – | – | – | – | – | – | 112 | 76.6 | 102 | 83.8 | 110 | 97.8 | –
OC[C@H]1O[C@@H](n2cnc3c2N=CNC[C@H]3O)C[C@@H]1O [Pentostatin] (300 nM) | – | – | – | – | – | – | 93.1 | 82.3 | 111 | 97.8 | 108 | 94.3 | –
Clc1ccc(C(c2ccccc2Cl)C(Cl)Cl)cc1 (configuration not stated) [Mitotane] (300 nM) | – | – | – | – | – | – | 95 | 92.5 | 101 | 94.5 | 110 | 109 | –
COc1cc(Nc2ncc3c(n2)-c2ccc(Cl)cc2C(c2c(F)cccc2OC)=NC3)ccc1C(=O)O [MLN8237] (1000 nM) | – | – | – | – | – | – | – | – | – | – | – | – | normalised viability (DU-4475 [13]): 16.5%; normalised viability (HDQ-P1 [14]): 54.2%; normalised viability (CAL-148 [15]): 36.9%; normalised viability (CAL-85-1 [16]): 69.1%; normalised viability (MDA-MB-453 [17]): 68.9%; normalised viability (CAL-51 [18]): 27.2%
CN1CCC(COc2cnc(-c3cccc(Cn4nc(-c5cccc(C#N)c5)ccc4=O)c3)nc2)CC1 (300 nM) | – | – | – | – | – | – | 105 | 81.3 | 86.9 | 93.4 | 94.5 | 101 | –
Nc1ccn([C@@H]2O[C@H](CO)[C@@H](O)[C@@H]2O)c(=O)n1 [Cytarabine] (3000 nM) | 26.1 | 86.7 | 34.8 | 70.1 | 62.5 | 16.4 | – | – | – | – | – | – | –
COc1cc(Nc2ncc3c(n2)-c2ccc(Cl)cc2C(c2c(F)cccc2OC)=NC3)ccc1C(=O)O [MLN8237] (3000 nM) | 18.3 | 58 | 28.8 | 69.2 | 60.1 | 26.2 | – | – | – | – | – | – | –
COc1cccc2cc(-c3nc([C@H]4CC[C@H](C(=O)O)CC4)n4ncnc(N)c34)[nH]c12 [OSI-027] (300 nM) | – | – | – | – | – | – | 82.5 | 37.9 | 76.1 | 75.5 | 66.1 | 74.3 | –
Cc1ccc(F)c(NC(=O)Nc2ccc(-c3cccc4[nH]nc(N)c34)cc2)c1 [Linifanib] (300 nM) | 105 | 111 | 104 | 103 | 113 | 101 | – | – | – | – | – | – | –
C=CCNC1=C2C[C@@H](C)C[C@H](OC)[C@H](O)[C@@H](C)/C=C(\C)[C@H](OC(N)=O)[C@@H](OC)/C=C\C=C(/C)C(=O)NC(=CC1=O)C2=O [Tanespimycin] (300 nM) | – | – | – | – | – | – | 1.35 | 28.8 | 19.7 | 47.2 | 8.64 | 48.2 | –
COc1cccc2c1C(=O)c1c(O)c3c(c(O)c1C2=O)C[C@@](O)(C(=O)CO)C[C@@H]3O[C@H]1C[C@H](N)[C@H](O)[C@H](C)O1 [Doxorubicin] (300 nM) | 39.4 | 58 | 31.9 | 54 | 70.6 | 33.5 | – | – | – | – | – | – | –
CS(=O)(=O)c1ccc(C(=O)Nc2ccc(Cl)c(-c3ccccn3)c2)c(Cl)c1 [Vismodegib] (3000 nM) | 112 | 103 | 83.3 | 96.4 | 95 | 108 | – | – | – | – | – | – | –
CC[C@]1(O)C[C@@H]2CN(CCc3c([nH]c4ccccc34)[C@@](C(=O)OC)(c3cc4c(cc3OC)N(C)[C@H]3[C@@](O)(C(=O)OC)[C@H](OC(C)=O)[C@]5(CC)C=CCN6CC[C@]43[C@@H]65)C2)C1 [Vinblastine] (30 nM) | – | – | – | – | – | – | 67.4 | 31.5 | 17.2 | 36.2 | 29.1 | 49.7 | –
C=CC[C@@H]1/C=C(\C)C[C@H](C)C[C@H](OC)[C@H]2O[C@@](O)(C(=O)C(=O)N3CCCC[C@H]3C(=O)O[C@H](/C(C)=C/[C@@H]3CC[C@@H](O)[C@H](OC)C3)[C@H](C)[C@@H](O)CC1=O)[C@H](C)C[C@@H]2OC [Tacrolimus] (300 nM) | – | – | – | – | – | – | 99.6 | 119 | 106 | 101 | 111 | 103 | –
CN(C)C/C=C/C(=O)Nc1cc2c(Nc3ccc(F)c(Cl)c3)ncnc2cc1O[C@H]1CCOC1 [Afatinib] (300 nM) | – | – | – | – | – | – | 84.6 | 46.1 | 74.2 | 52.9 | 36.5 | 101 | –
COc1cccc2c1C(=O)c1c(O)c3c(c(O)c1C2=O)C[C@@](O)(C(=O)CO)C[C@@H]3O[C@H]1C[C@H](N)[C@H](O)[C@H](C)O1 [Doxorubicin] (30 nM) | – | – | – | – | – | – | 55 | 75.2 | 58.7 | 92.2 | 100 | 87.1 | –
